Test results published in ChEMBL document CHEMBL1153895, “Discovery of 4,6-bis-anilino-1H-pyrrolo[2,3-d]pyrimidines: potent inhibitors of the IGF-1R receptor tyrosine kinase” (Bioorg Med Chem Lett, 2009).
pIC50: −log10 of the molar value.

Experiments:
[1] = molecular target: T1, Insulin-like growth factor 1 receptor (Homo sapiens, UniProt P08069); assay: Inhibition of GST-tagged human IGF1R expressed in Sf9 cells by Wallac Victor fluorometer
[2] = molecular target: T1, Insulin-like growth factor 1 receptor; assay: Inhibition of human IGF1R phosphorylation expressed in HEK293 cells by DELFIA; format: cell-based
Aurora kinase B = Aurora kinase B (Homo sapiens, UniProt Q96GD4); assay: Inhibition of Aurora B
Chain of Aurora kinase B (Q96GD4 whole entry): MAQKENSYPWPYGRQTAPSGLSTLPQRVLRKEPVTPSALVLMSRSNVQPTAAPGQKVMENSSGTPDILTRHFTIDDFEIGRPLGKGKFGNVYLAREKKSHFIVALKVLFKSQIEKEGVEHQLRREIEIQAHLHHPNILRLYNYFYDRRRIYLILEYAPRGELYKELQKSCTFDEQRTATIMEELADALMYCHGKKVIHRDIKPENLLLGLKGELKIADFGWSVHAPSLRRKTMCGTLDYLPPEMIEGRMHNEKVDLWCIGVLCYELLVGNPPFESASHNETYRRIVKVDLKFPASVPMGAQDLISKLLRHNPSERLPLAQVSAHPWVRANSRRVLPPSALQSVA

[3] = Clearance in rat at 2.3 mg/kg, iv; format: ADME, organism-based; set-up: dose 2.3 mg/kg, route intravenous; details: in vivo
Rattus norvegicus [4] = assay: Dose normalized AUC in rat at 2.3 mg/kg, iv and 10.7 mg/kg, po; format: ADME, organism-based; details: in vivo
Rattus norvegicus [5] = assay: Volume of distribution at steady state in rat at 2.3mg/kg, iv and 10.7 mg/kg, po; format: ADME, organism-based; set-up: dose 10.7 mg/kg, route oral; details: in vivo
[6] = Cmax in rat at 2.3mg/kg, iv and 10.7 mg/kg, po; format: ADME, organism-based; set-up: dose 10.7 mg/kg, route oral; details: in vivo
[7] = Bioavailability in rat at 2.3 mg/kg, iv and 10.7 mg/kg, po; format: ADME, organism-based; details: in vivo
[8] = Clearance in rat at 4.2 mg/kg, iv; format: ADME, organism-based; set-up: dose 4.2 mg/kg, route intravenous; details: in vivo
Rattus norvegicus [9] = assay: Dose normalized AUC in rat at 4.2 mg/kg, iv and 13.6 mg/kg, po; format: ADME, organism-based; details: in vivo
Rattus norvegicus [10] = assay: Volume of distribution at steady state in rat at 4.2mg/kg, iv and 13.6 mg/kg, po; format: ADME, organism-based; set-up: dose 13.6 mg/kg, route oral; details: in vivo
[11] = Cmax in rat at 4.2mg/kg, iv and 13.6 mg/kg, po; format: ADME, organism-based; set-up: dose 13.6 mg/kg, route oral; details: in vivo
[12] = Bioavailability in rat at 4.2 mg/kg, iv and 13.6 mg/kg, po; format: ADME, organism-based; details: in vivo
[13] = Clearance in rat at 2.0 mg/kg, iv; format: ADME, organism-based; set-up: dose 2 mg/kg, route intravenous; details: in vivo
Rattus norvegicus [14] = assay: Dose normalized AUC in rat at 2.0 mg/kg, iv and 10.6 mg/kg, po; format: ADME, organism-based; details: in vivo
Rattus norvegicus [15] = assay: Volume of distribution at steady state in rat at 2.0mg/kg, iv and 10.6 mg/kg, po; format: ADME, organism-based; set-up: dose 10.6 mg/kg, route oral; details: in vivo
[16] = Cmax in rat at 2.0mg/kg, iv and 10.6 mg/kg, po; format: ADME, organism-based; set-up: dose 10.6 mg/kg, route oral; details: in vivo
[17] = Bioavailability in rat at 2.0 mg/kg, iv and 10.6 mg/kg, po; format: ADME, organism-based; details: in vivo
Rattus norvegicus [18] = assay: Dose normalized AUC in rat at 2.1 mg/kg, iv and 9.2 mg/kg, po; format: ADME, organism-based; details: in vivo
[19] = Volume of distribution at steady state in rat at 2.1 mg/kg, iv and 9.2 mg/kg, po; format: ADME, organism-based; details: in vivo, read-out: Vdss
[20] = Cmax in rat at 2.1 mg/kg, iv and 9.2 mg/kg, po; format: ADME, organism-based; details: in vivo
[21] = Clearance in rat at 1.7 mg/kg, iv; format: ADME, organism-based; set-up: dose 1.7 mg/kg, route intravenous; details: in vivo
Rattus norvegicus [22] = assay: Dose normalized AUC in rat at 1.7 mg/kg, iv and 10.5 mg/kg, po; format: ADME, organism-based; details: in vivo
[23] = Volume of distribution at steady state in rat at 1.7 mg/kg, iv and 10.5 mg/kg, po; format: ADME, organism-based; details: in vivo, read-out: Vdss
[24] = Cmax in rat at 1.7 mg/kg, iv and 10.5 mg/kg, po; format: ADME, organism-based; details: in vivo
[25] = Bioavailability in rat at 1.7 mg/kg, iv and 10.5 mg/kg, po; format: ADME, organism-based; details: in vivo
[26] = molecular target: Mitogen-activated protein kinase 8 (Homo sapiens, UniProt P45983); assay: Inhibition of JNK1
Chain of Mitogen-activated protein kinase 8 (P45983 whole entry): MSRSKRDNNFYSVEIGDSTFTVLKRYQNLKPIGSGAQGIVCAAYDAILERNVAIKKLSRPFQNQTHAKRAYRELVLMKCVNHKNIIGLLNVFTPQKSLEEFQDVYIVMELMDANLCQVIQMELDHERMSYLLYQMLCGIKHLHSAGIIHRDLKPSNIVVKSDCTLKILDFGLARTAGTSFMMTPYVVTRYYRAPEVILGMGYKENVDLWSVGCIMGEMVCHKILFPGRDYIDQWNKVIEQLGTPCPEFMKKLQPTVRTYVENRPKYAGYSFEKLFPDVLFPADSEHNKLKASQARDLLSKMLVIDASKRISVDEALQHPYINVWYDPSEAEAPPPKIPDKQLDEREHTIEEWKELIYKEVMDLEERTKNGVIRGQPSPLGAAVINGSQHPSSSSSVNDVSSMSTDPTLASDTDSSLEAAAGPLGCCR

[27] = molecular target: ALK tyrosine kinase receptor (Homo sapiens, UniProt Q9UM73); assay: Inhibition of ALK
Chain of ALK tyrosine kinase receptor (Q9UM73 whole entry): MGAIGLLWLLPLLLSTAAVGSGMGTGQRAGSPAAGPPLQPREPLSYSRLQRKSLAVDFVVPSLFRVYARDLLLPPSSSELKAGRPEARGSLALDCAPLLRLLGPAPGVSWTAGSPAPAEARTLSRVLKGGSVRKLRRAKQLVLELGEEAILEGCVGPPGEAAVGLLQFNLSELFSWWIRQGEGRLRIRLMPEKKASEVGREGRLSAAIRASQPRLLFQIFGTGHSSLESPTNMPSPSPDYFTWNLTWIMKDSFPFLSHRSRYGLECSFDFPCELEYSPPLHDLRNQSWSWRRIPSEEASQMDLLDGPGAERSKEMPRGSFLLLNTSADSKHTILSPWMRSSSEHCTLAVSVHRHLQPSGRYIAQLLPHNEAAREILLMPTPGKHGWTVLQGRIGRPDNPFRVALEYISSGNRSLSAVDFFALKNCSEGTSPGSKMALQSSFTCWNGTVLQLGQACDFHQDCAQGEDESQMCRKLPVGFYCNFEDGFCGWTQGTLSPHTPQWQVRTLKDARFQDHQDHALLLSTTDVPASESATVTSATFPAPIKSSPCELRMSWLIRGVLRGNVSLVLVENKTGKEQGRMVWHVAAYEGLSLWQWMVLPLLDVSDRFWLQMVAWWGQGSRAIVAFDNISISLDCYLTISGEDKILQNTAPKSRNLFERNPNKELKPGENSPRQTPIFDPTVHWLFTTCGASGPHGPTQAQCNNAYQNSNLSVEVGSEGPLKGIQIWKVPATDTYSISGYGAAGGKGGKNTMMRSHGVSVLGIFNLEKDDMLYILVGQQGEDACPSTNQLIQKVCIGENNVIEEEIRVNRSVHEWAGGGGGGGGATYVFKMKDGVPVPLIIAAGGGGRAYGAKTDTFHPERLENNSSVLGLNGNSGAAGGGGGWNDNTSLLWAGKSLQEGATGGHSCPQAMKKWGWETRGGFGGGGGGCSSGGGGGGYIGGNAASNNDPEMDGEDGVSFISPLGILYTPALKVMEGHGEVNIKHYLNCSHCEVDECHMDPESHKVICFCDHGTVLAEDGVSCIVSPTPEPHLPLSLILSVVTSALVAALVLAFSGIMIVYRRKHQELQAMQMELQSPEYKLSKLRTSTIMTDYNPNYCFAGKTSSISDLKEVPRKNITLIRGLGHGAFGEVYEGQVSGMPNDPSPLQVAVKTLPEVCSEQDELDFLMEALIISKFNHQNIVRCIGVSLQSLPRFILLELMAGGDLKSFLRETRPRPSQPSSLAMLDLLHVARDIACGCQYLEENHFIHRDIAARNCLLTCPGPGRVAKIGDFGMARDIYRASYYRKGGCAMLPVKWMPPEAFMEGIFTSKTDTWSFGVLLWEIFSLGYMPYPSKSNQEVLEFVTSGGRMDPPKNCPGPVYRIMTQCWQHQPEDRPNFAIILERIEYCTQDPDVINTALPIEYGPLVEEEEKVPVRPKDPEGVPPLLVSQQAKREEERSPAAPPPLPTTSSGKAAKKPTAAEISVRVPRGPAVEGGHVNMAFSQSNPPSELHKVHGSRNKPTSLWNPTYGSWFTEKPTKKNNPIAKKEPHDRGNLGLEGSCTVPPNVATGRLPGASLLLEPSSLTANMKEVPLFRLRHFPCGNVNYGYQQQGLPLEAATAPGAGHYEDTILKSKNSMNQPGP

Insulin receptor = Insulin receptor (Homo sapiens, UniProt P06213); assay: Inhibition of human IR
Chain of Insulin receptor (P06213 28-758 limits assumed): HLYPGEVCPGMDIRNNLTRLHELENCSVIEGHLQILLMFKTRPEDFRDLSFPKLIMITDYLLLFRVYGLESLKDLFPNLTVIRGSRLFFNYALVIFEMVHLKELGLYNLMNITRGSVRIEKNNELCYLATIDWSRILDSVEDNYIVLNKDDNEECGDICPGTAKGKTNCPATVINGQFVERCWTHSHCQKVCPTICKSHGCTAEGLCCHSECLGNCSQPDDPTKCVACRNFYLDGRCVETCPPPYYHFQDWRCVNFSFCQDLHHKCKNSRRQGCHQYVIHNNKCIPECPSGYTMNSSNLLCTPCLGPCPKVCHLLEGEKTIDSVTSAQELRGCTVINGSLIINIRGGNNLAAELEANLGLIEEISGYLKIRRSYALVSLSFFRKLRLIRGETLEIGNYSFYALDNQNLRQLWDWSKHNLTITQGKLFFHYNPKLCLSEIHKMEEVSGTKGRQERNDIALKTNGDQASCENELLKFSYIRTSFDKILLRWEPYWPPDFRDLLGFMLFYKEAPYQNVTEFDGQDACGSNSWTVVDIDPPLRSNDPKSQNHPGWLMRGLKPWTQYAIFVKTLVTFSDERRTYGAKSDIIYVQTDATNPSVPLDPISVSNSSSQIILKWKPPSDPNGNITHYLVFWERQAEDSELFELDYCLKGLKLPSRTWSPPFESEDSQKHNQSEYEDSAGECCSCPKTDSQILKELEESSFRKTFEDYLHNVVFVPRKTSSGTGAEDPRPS
Chain of Insulin receptor (P06213 763-1382 limits assumed): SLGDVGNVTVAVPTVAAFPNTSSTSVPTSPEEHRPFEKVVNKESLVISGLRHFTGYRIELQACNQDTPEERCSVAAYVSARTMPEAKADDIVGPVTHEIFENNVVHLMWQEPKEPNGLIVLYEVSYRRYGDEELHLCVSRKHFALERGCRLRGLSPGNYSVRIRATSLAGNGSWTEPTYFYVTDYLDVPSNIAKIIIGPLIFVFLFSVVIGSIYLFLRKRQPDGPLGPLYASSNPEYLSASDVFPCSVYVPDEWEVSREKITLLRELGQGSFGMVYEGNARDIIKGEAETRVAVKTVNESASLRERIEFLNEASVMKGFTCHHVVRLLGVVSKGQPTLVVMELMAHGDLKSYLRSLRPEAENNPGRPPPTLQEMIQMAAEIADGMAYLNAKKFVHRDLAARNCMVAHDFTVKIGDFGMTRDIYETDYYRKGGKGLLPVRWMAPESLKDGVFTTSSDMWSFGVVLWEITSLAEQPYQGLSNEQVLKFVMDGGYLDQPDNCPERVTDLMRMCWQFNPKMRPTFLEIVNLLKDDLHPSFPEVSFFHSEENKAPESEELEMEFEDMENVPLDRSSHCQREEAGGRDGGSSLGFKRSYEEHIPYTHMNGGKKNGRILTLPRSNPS

T1 sequence (P08069 31-736 limits assumed): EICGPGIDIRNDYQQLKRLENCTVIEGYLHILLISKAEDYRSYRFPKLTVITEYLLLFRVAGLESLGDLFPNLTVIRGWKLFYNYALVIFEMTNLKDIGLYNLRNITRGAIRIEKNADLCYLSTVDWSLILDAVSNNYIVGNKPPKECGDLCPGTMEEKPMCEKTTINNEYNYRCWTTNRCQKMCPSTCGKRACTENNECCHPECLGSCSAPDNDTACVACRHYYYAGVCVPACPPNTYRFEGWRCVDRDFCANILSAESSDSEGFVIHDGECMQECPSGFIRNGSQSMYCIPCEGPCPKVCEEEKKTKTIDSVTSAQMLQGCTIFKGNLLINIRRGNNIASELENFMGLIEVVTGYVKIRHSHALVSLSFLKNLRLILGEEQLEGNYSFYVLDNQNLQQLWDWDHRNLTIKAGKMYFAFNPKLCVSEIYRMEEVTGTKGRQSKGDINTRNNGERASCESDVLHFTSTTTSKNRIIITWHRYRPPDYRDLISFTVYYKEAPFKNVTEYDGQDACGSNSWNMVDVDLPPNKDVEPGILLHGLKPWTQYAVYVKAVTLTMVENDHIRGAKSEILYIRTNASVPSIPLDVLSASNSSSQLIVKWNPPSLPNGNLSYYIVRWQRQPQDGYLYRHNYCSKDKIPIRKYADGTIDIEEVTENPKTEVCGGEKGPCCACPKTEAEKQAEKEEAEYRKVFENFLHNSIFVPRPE
T1 sequence (P08069 741-1367 limits assumed): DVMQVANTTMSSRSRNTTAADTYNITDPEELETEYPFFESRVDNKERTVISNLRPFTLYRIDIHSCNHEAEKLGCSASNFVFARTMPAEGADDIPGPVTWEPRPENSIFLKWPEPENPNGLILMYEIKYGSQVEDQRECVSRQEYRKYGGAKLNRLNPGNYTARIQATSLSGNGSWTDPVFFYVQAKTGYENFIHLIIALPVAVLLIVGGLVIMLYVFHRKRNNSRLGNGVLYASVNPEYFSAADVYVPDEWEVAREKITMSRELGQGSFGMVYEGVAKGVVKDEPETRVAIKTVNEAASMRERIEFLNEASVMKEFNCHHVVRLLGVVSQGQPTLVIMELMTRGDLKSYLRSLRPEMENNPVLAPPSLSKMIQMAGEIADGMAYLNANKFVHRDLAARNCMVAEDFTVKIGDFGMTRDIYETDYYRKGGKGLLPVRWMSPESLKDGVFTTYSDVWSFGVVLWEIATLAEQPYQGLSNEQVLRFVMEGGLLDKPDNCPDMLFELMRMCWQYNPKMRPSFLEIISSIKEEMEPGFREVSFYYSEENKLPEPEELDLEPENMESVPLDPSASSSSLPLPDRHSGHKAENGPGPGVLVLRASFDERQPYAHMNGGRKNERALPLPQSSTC

Row | pIC50 [1] | pIC50 [2] | SMILES | further results
1 | 8.80 | 6.50 | CCCN1CCC=C(c2ccc(Nc3nc(Nc4ccccc4C(N)=O)c4cc[nH]c4n3)c(F)c2)C1 | pIC50 (Aurora kinase B): 5.80
2 | 9.10 | 6.89 | COc1cc(N2CCN(C(C)C)CC2)ccc1Nc1nc(Nc2cc(F)ccc2C(N)=O)c2cc[nH]c2n1 | 
3 |  | 6.67 | COc1cc(N2CCN(C(C)C)CC2)ccc1Nc1nc(Nc2ccc(F)c(F)c2C(N)=O)c2cc[nH]c2n1 | 
4 |  | 7.05 | COc1cc(N2CCN(C(C)C)CC2)ccc1Nc1nc(Nc2cc(F)cc(F)c2C(N)=O)c2cc[nH]c2n1 | clearance [3]: 46 mL/min/kg; AUC (Rattus norvegicus [4]): 117 ng·h/mL/mg/kg; Vdss (Rattus norvegicus [5]): 11 L/kg; Cmax [6]: 200 ng/mL; bioavailability [7]: 37%
5 | 7.70 | 6.57 | COc1cc(C)c(N2CCN(C(C)C)CC2)cc1Nc1nc(Nc2cccc(F)c2C(N)=O)c2cc[nH]c2n1 | 
6 | 7.70 | < 5.00 | CCCN1CCC=C(c2ccc(Nc3nc(Nc4ccccc4C(N)=O)c4cc[nH]c4n3)c(C(F)(F)F)c2)C1 | 
7 | 8.40 | 6.24 | COc1c(Nc2nc(Nc3cccc(F)c3C(N)=O)c3cc[nH]c3n2)ccc(N2CCN(C(C)C)CC2)c1F | 
8 | 8.49 | 5.65 | CCCN1CCC=C(c2ccc(Nc3nc(Nc4cc(F)ccc4C(N)=O)c4cc[nH]c4n3)c(OC(C)C)c2)C1 | 
9 | 9.30 | 7.28 | COc1cc(N2CCN(C(C)C)CC2)ccc1Nc1nc(Nc2cc(F)c(F)cc2C(N)=O)c2cc[nH]c2n1 | clearance [8]: 64 mL/min/kg; AUC (Rattus norvegicus [9]): 114 ng·h/mL/mg/kg; Vdss (Rattus norvegicus [10]): 17 L/kg; Cmax [11]: 152 ng/mL; bioavailability [12]: 45%
10 | 8.30 | 6.43 | CNC(=O)c1c(F)cccc1Nc1nc(Nc2ccc(N3CCN(C(C)C)CC3)cc2OC)nc2[nH]ccc12 | clearance [13]: 32 mL/min/kg; AUC (Rattus norvegicus [14]): 277 ng·h/mL/mg/kg; Vdss (Rattus norvegicus [15]): 22.3 L/kg; Cmax [16]: 418 ng/mL; bioavailability [17]: 83%
11 | 7.30 |  | COc1cc(N2CCN(C(C)C)CC2)ccc1N(C)c1nc(Nc2cccc(F)c2C(N)=O)c2cc[nH]c2n1 | 
12 | 5.00 |  | COc1cc(N2CCN(C(C)C)CC2)ccc1Nc1nc(Nc2cccc(F)c2C(N)=O)c2ccn(C)c2n1 | 
13 | 8.49 | 7.05 | COc1cc(N2CCN(C(C)C)CC2)c(OC)cc1Nc1nc(Nc2cccc(F)c2C(N)=O)c2cc[nH]c2n1 | 
14 | 8.20 | 6.21 | COc1cc(N2CCN(C(C)C)CC2)ccc1Nc1nc(Nc2ccc(F)cc2C(=O)NO)c2cc[nH]c2n1 | 
15 | 8.70 | 6.72 | COc1cc(N2CCN(C(C)C)CC2)c(F)cc1Nc1nc(Nc2cccc(F)c2C(N)=O)c2cc[nH]c2n1 | 
16 | 8.70 | 7.42 | COc1cc(N2CCN(C(C)C)CC2)c(C)cc1Nc1nc(Nc2cccc(F)c2C(N)=O)c2cc[nH]c2n1 | 
17 | 9.10 | 7.09 | CCCN1CCC=C(c2ccc(Nc3nc(Nc4cc(F)ccc4C(N)=O)c4cc[nH]c4n3)c(OC)c2)C1 | 

Row | pIC50 [1] | pIC50 [2] | SMILES | further results
18 | 8.80 | 6.91 | CCCN1CCN(c2ccc(Nc3nc(Nc4cc(F)ccc4C(N)=O)c4cc[nH]c4n3)c(OC)c2)CC1 | 
19 | 8.80 |  | CCCN1CCC=C(c2ccc(Nc3nc(Nc4ccccc4C(N)=O)c4cc[nH]c4n3)cc2)C1 | pIC50 (Aurora kinase B): 8.30
20 | 8.80 | 7.17 | COc1cc(N2CCOCC2)ccc1Nc1nc(Nc2cc(F)ccc2C(N)=O)c2cc[nH]c2n1 | 
21 | 8.30 | 6.19 | COc1cc(N2CCN(C(C)C)CC2)ccc1Nc1nc(Nc2ccc(F)cc2C(=O)NCCO)c2cc[nH]c2n1 | 
22 |  | 6.96 | COc1cc(N2CCN(C(C)C)CC2)ccc1Nc1nc(Nc2cccc(F)c2C(N)=O)c2cc[nH]c2n1 | AUC (Rattus norvegicus [18]): 156 ng·h/mL/mg/kg; Vd [19]: 18.5 L/kg; Cmax [20]: 184 ng/mL
23 | 7.60 | 6.12 | COCCNC(=O)c1cc(F)ccc1Nc1nc(Nc2ccc(N3CCN(C(C)C)CC3)cc2OC)nc2[nH]ccc12 | 
24 | 8.80 | 7.19 | COc1cc(N2CCN(C(C)C)CC2)c(Cl)cc1Nc1nc(Nc2cccc(F)c2C(N)=O)c2cc[nH]c2n1 | 
25 | 9.00 | 7.15 | COc1cc(N2CCN(C(C)C)CC2)ccc1Nc1nc(Nc2ccccc2C(N)=O)c2cc[nH]c2n1 | clearance [21]: 142 mL/min/kg; AUC (Rattus norvegicus [22]): 35 ng·h/mL/mg/kg; Vd [23]: 19.5 L/kg; Cmax [24]: 69 ng/mL; bioavailability [25]: 37%
26 | 9.22 | 6.98 | CCCN1CCC=C(c2ccc(Nc3nc(Nc4ccccc4C(N)=O)c4cc[nH]c4n3)c(OC)c2)C1 | pIC50 (Aurora kinase B): < 5.00
27 | 8.49 | 6.87 | CNC(=O)c1cc(F)ccc1Nc1nc(Nc2ccc(N3CCN(C(C)C)CC3)cc2OC)nc2[nH]ccc12 | 
28 | 8.10 | 5.43 | COc1c(Nc2nc(Nc3cccc(F)c3C(N)=O)c3cc[nH]c3n2)ccc(N2CCN(C(C)C)CC2)c1C | 
29 | 8.40 | 6.80 | COc1ccc(N2CCN(C(C)C)CC2)cc1Nc1nc(Nc2cccc(F)c2C(N)=O)c2cc[nH]c2n1 | 
30 | 9.40 | 7.22 | CCCN1CCCC(c2ccc(Nc3nc(Nc4cc(F)ccc4C(N)=O)c4cc[nH]c4n3)c(OC)c2)C1 (racemic) [GSK-1173862A] | 
31 | 8.30 |  | CCCN1CCC=C(c2ccc(Nc3nc(Nc4ccccc4C(N)=O)c4cc[nH]c4n3)c(C)c2)C1 [GSK-994854A] | pIC50 [26]: 7.92; pIC50 [27]: 9.00; pIC50 (Insulin receptor): 8.20
32 | 9.10 | 7.22 | COc1cc(N2CCN(C(C)C)CC2)ccc1Nc1nc(Nc2ccc(F)cc2C(N)=O)c2cc[nH]c2n1 [GSK-1220512A] | 
33 | 9.52 | 7.33 | CCCN1CCC(c2ccc(Nc3nc(Nc4cc(F)ccc4C(N)=O)c4cc[nH]c4n3)c(OC)c2)CC1 [GSK-1326255A] | 
34 | 7.80 | 5.25 | COc1cc(N2CCN(C(C)C)CC2)ccc1Nc1nc(Nc2ccc(F)cc2C(=O)NC[C@@H](O)CO)c2cc[nH]c2n1 [GSK-1392956A] | 
